The values below are quoted from earlier work in US20050147620A1, “Cinnamon formulation for reducing cholesterol and/or glucose levels” (priority 2004, published 2005).

The conditions of data set [1]: ingestion of 20 to 30 g per day for several days.

SMILES strings stand for the structures.

Take `CN(CC(=O)O)C(=N)N.O` [creatine monohydrate]: the “increase in human skeletal muscle total creatine content” value in data set [1] was “greater than 20%”. What is called pKa is the negative logarithm of the acid dissociation constant. `O=C(O)CCCCC1CCSS1` (stereo not drawn) [lipoic acid, α-lipoic acid]: the pKa is 4.7.
